From US20230113944A1, “COMPOSITIONS AND METHODS FOR THE TREATMENT OF NEURODEGENERATIVE DISEASES” (priority 2020, published 2023)
Several values for one entry are separate records, joined by “and”; a condition that tells them apart may be missing. Identical values can stand only once. Entries after “also recorded” stand apart in the source; their conditions may differ.

Tests used:
Human AChE = target: T1, Human AChE (Homo sapiens, UniProt P22303); test: biochemical; details: read-out: AChE IC50
T1 construct: purchased Sigma
T1 sequence (P22303 32-614): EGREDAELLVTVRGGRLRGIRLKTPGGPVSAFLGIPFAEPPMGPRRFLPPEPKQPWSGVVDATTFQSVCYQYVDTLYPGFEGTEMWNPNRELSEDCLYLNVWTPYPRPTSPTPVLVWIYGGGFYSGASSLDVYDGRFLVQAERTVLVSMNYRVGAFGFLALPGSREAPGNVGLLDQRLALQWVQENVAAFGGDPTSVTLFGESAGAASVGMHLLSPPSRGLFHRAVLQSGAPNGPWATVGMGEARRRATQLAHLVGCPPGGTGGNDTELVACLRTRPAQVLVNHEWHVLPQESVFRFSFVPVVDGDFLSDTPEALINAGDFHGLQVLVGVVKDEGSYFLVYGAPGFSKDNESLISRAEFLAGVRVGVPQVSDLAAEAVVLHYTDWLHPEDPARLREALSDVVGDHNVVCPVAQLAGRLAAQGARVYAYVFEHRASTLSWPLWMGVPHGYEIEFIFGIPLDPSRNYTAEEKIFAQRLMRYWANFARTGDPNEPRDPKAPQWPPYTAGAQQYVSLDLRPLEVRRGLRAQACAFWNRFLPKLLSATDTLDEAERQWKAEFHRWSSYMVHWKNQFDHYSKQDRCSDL
Method: This acetylcholinesterase (AChE) assay is based on an Amplex Red assay kit (Thermo Fisher A12217). Human AChE (Sigma) was used. Briefly, 5 μL of compounds at the desired concentration were loaded into wells of a 384-well plate. Then, 5 μl of human AChE (30 mU/mL) was loaded into each well, followed by the addition of 10 μL of the working solution which contains 400 μM Amplex Red reagent, 2 U/mL HRP, 0.2 U/mL choline oxidase, and 100 μM acetylcholine. The reaction was monitored for 60 minutes and read at 530/590 nm. AChE IC50 was determined by plotting AChE activity as a percentage of DMSO control using GraphPad Prism software.

[1] = Parallel artificial membrane permeability (IAM column) prediction of CNS permeability; type: in vitro ADME; details: PAMPA, 2 mM
Method: To predict the potential for brain permeability, a Regis Technologies analytical column connected to an Agilent HPLC system (Infinity 1260 quaternary pump and multiple wavelength detector; 1200 autosampler) was used. An IAM.PC.DD column was (4.6 mm i.d.×10 cm, particle size 5 μm; pore size 300 Å) conditioned with 20 column volumes of mobile phase or until a stable line was achieved. A mobile phase with a consistent flow rate of 1 mL/min was used comprising 100 mM Na2PO4 (solvent A) and acetonitrile (solvent B); compounds were eluted using a gradient (min/% B: 0/30, 10/60, 11/30, 15/30). Detector settings were 220, 250 and 280 nm and acquisition time was 15 min. The autosampler injected 10 μL of compound at 2 mM final, diluted from 10 mM in DMSO in 70:30 (water:acetonitrile). After elution, compound retention and void volume times were obtained from the chromatogram. The IAM capacity factor: (KIAM) was calculated using the equation: […]
where tr is the retention time of a compound and t0 is the void volume time of the column. To predict CNS permeability, we used the correlation described by the formula below.

[2] = tested on: HEK293T Tau RD P301S FRET biosensor (tau biosensor) cells; test: Donor plus Recipient (D+R) tau propagation assay; type: cell-based; details: 20 μM
Method: HEK293T Tau RD P301S FRET biosensor (tau biosensor) cells were grown in Dulbecco's Modified Eagle's medium (DMEM) with high glucose, 10% FBS, and 1% Penicillin-streptomycin at 37° C./5% CO2. The lead inhibitors were tested in functional tau propagation “D+R” (Donors plus Recipients) and EMT (EV-mediated transfer) assays using the tau biosensors. Briefly, tau aggregation in donor cells (D) was induced by transfection of tau biosensor cells with human AD brain derived synaptosomal extracts (35 μg of synaptosomal fraction for 5 million cells in one 10 cm dish); control cells were treated with corresponding amount of transfection reagent lipofectamine 2000. After 24 hr incubation, the cells were trypsinized and plated together with DID-labeled recipient cells (R) in a 1:1 ratio in 96-well plates (15,000 of each cell type per well) for D+R assay or 1.5 million of donor cells per well in 6-well plates for EMT assay. Tested compounds or a corresponding amount of DMSO (0.2%) was added to the cell culture medium, DMEM, which contained 10% of exosome-depleted FBS (ThermoFisher, A2720803). Four technical replicates were used for each experimental condition. The inhibitors were tested at 20 μM concentration. […] Tau seed transfer from donor to recipient cells results in FRET signal generation in the DID-positive recipient cells, which was measured by flow cytometry. Integrated FRET density was calculated in the top 30% of DID-positive cell based on DID signal intensity.
(§1) An Attune NxT Flow Cytometer (Invitrogen) equipped with an autosampler and FRET-compatible laser lines and filter sets was used for FRET signal detection. The FRET (CFP/YFP) signal was excited by a 405 nm laser for CFP excitation and detected in the YFP image detection channel. Flow cytometry data was analyzed using FCS Express version 5 software (DeNovo Software California, USA). Integrated FRET density was calculated as a product of percentage FRET positive cells and median of fluorescent intensity of the FRET positive cells as previously established.

[3] = tested on: HEK293T Tau RD P301S FRET biosensor (tau biosensor) cells; test: EV-mediated tau seed transfer (EMT) assay; type: cell-based; details: 20 μM
Method: HEK293T Tau RD P301S FRET biosensor (tau biosensor) cells were grown in Dulbecco's Modified Eagle's medium (DMEM) with high glucose, 10% FBS, and 1% Penicillin-streptomycin at 37° C./5% CO2. The lead inhibitors were tested in functional tau propagation “D+R” (Donors plus Recipients) and EMT (EV-mediated transfer) assays using the tau biosensors. Briefly, tau aggregation in donor cells (D) was induced by transfection of tau biosensor cells with human AD brain derived synaptosomal extracts (35 μg of synaptosomal fraction for 5 million cells in one 10 cm dish); control cells were treated with corresponding amount of transfection reagent lipofectamine 2000. After 24 hr incubation, the cells were trypsinized and plated together with DID-labeled recipient cells (R) in a 1:1 ratio in 96-well plates (15,000 of each cell type per well) for D+R assay or 1.5 million of donor cells per well in 6-well plates for EMT assay. Tested compounds or a corresponding amount of DMSO (0.2%) was added to the cell culture medium, DMEM, which contained 10% of exosome-depleted FBS (ThermoFisher, A2720803). Four technical replicates were used for each experimental condition. The inhibitors were tested at 20 μM concentration. In 48 hours 50 μL of culture medium per well were collected for cell viability test (Cytotox 96 non-radioactive cytotoxicity assay, Promega Corp., Madison, Wis.). The cells in D+R assay were harvested at the 48 hr time point and fixed with 2% paraformaldehyde for flow cytometry analysis according to published protocol. Tau seed transfer from donor to recipient cells results in FRET signal generation in the DID-positive recipient cells, which was measured by flow cytometry. Integrated FRET density was calculated in the top 30% of DID-positive cell based on DID signal intensity.
For the EMT assay, cell culture medium from donor cells growing for 48 hours with the compounds at concentrations of 20 μM or a corresponding amount of DMSO (0.2%), was collected and EVs were purified using the ExoQuick-TC kit (SBI biosciences) according to the manufacturer's instructions. Naïve recipient cells were plated in 96 well plates at a density of 20,000 cells per well in exosome-free medium and transfected with donor cell-derived exosomes at 12 hrs. The recipient cells were harvested 60 hours after transfection and FRET signals were analyzed using flow cytometry.
as §1, with “The FRET (CFP/YFP) signal was excited by a 405 nm laser for CFP excitation and detected in the YFP image detection channel.” left out

[4] = Brain pharmacokinetic analysis after SQ dosing
Method: Pharmacokinetic (PK) analysis on the leads 8 and 11 to determine brain permeability using wild type mice was performed. The compounds were subcutaneously (SQ) injected at a dose of 20 mg per kg of body weight (mpk). Brain and plasma samples were collected 1, 2, and 4 hours after dosing.

[5] = tested on: Tau P301S (PS19 line) tauopathy mouse model; test: Rapid in vivo assay: IL1β-induced brain EV release; design: species or system mice
[6] = tested on: donor cells (tau biosensor cells); test: Donor cell number and viability in EMT assay; type: cell-based; details: 48 hours after sub-culture, 20 μM, vs DMSO
Method: HEK293T Tau RD P301S FRET biosensor (tau biosensor) cells were grown in Dulbecco's Modified Eagle's medium (DMEM) with high glucose, 10% FBS, and 1% Penicillin-streptomycin at 37° C./5% CO2. The lead inhibitors were tested in functional tau propagation “D+R” (Donors plus Recipients) and EMT (EV-mediated transfer) assays using the tau biosensors. Briefly, tau aggregation in donor cells (D) was induced by transfection of tau biosensor cells with human AD brain derived synaptosomal extracts (35 μg of synaptosomal fraction for 5 million cells in one 10 cm dish); control cells were treated with corresponding amount of transfection reagent lipofectamine 2000. After 24 hr incubation, the cells were trypsinized and plated together with DID-labeled recipient cells (R) in a 1:1 ratio in 96-well plates (15,000 of each cell type per well) for D+R assay or 1.5 million of donor cells per well in 6-well plates for EMT assay. Tested compounds or a corresponding amount of DMSO (0.2%) was added to the cell culture medium, DMEM, which contained 10% of exosome-depleted FBS (ThermoFisher, A2720803). […] Tau seed transfer from donor to recipient cells results in FRET signal generation in the DID-positive recipient cells, which was measured by flow cytometry. Integrated FRET density was calculated in the top 30% of DID-positive cell based on DID signal intensity.

[7] = tested on: HEK293T Tau RD P301S FRET biosensor (tau biosensor) cells; test: EV-mediated tau seed transfer (EMT) assay; type: cell-based; details: 20 μM; remark: listed apart in the source
[8] = target: human serum albumin (HSA) (Homo sapiens, UniProt P02768); test: Binding to human serum albumin (HSA)
Sequence of human serum albumin (HSA) (P02768 25-609): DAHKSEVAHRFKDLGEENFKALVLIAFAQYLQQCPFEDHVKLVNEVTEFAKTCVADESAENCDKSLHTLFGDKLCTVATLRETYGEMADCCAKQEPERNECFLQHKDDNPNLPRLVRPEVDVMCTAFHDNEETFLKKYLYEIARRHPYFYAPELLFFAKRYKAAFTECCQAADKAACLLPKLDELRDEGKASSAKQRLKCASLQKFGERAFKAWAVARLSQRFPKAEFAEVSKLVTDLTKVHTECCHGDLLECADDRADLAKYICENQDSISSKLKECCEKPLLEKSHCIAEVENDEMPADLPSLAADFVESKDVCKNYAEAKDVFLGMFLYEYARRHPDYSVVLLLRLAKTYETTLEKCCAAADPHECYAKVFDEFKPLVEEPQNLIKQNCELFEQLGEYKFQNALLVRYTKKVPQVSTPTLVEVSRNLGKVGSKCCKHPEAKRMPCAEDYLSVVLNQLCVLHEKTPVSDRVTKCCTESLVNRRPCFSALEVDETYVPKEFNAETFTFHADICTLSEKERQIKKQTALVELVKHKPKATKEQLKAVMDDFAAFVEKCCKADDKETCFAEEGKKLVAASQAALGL

SMILES: CN1c2ccc(OC(=O)Nc3cccnc3)cc2[C@]2(C)CCO[C@H]12 [Compound 11]
- IC50 (Human AChE): 1700 nM
- CNS perm (PAMPA) [1]: 1.8
- decrease of FRET fluorescence density from DMSO-control, D+R assay [2]: 19.5%
- tau seed transfer from donor to recipient cells, D+R assay ([2]; 48 hrs): suppress tau propagation; also recorded: significantly suppresses
- decrease of FRET fluorescence density from DMSO-control, EMT assay [3]: 41.3%
- tau seed transfer from donor to recipient cells, EMT assay ([3]; donor cells 48 hrs): suppress tau propagation; also recorded: significantly suppresses
- brain penetration (compound levels in brain tissue, LC-MS/MS) ([4]; mice, 20 mg/kg SQ): penetrated the brain
- concentration at 1 h ([4]; mouse, in vivo, 20 mg/kg): 262 ng/g and ~800 nM
- time of peak brain levels after SQ dosing ([4]; wild type mice, 20 mg/kg SQ): around one
- IL1β-induced tau release by exosomes ([5]; 20 mg/kg SQ): significantly reduced
- difference in CD11b levels (microglia-derived exosomes) vs IL1β group ([5]; 20 mg/kg SQ): not significant
- exosome-associated BIN1 upon IL1β stimulation ([5]; 20 mg/kg SQ): lower
- level of astrocyte-derived exosomes (GLAST) ([5]; 20 mg/kg SQ, vs IL1β group): significantly reduced
- exosomal marker CD63 in exosome-enriched F2 fractions ([5]; 20 mg/kg SQ, vs IL1β only group): significant reduction
- IL1β-induced brain EV / exosomal release (small EV concentration, TRPS) ([5]; mouse, in vivo, 20 mg/kg): diminished IL1β-induced brain EV release; also recorded: suppressed IL1β-induced exosomal release to the control level
- donor cell numbers or survival [6]: didn't affect
- EV size distribution of donor-derived EVs (TRPS) [7]: did not affect
- concentrations of exosomal-type small EVs from donor cells [7]: decreased
- levels of exosomal markers CD63, CD81, and syntenin-1 in donor EVs ([7]; vs DMSO control): reduced
- degree of binding to human serum albumin (HSA) [8]: low degree of binding
- fraction unbound ([8]; human, human serum albumin): 0.31
